# Source: the kinase profiling compilation of Christmann-Franck et al. (2016)
# Key:
# Experiment in all cases: radiometric filter-binding kinase assay
# [1] = tested on: AKT2 (human), P31751 [S474D]
# [2] = target: BTK (human) (UniProt Q06187)
# [3] = target: CDK2 CCNA2 (human) (UniProt P20248+P24941)
# [4] = target: CHEK2 (human) (UniProt O96017)
# [5] = target: CSK (human) (UniProt P41240)
# [6] = target: CSNK1D (human) (UniProt P48730)
# [7] = target: EPHA4 (human) (UniProt P54764)
# [8] = target: EPHB1 (human) (UniProt P54762)
# [9] = target: EPHB4 (human) (UniProt P54760)
# [10] = target: FLT1 (human) (UniProt P17948)
# [11] = target: IKBKB (human) (UniProt O14920)
# [12] = target: IKBKE (human) (UniProt Q14164)
# [13] = target: INSRR (human) (UniProt P14616)
# [14] = target: MAP2K1 (human) (UniProt Q02750)
# [15] = target: MAPK1 (human) (UniProt P28482)
# [16] = target: MAPK14 (human) (UniProt Q16539)
# [17] = target: MAPK15 (human) (UniProt Q8TD08)
# [18] = target: MAPK3 (human) (UniProt P27361)
# [19] = target: MAPKAPK3 (human) (UniProt Q16644)
# [20] = target: MKNK2 (human) (UniProt Q9HBH9)
# [21] = target: NEK2 (human) (UniProt P51955)
# [22] = target: NEK6 (human) (UniProt Q9HC98)
# [23] = target: PAK7 (human) (UniProt Q9P286)
# [24] = target: PIM2 (human) (UniProt Q9P1W9)
# [25] = target: PLK1 (human) (UniProt P53350)
# [26] = tested on: PRKAA1 or PRKAA2 (rat); details: accession and sequence are those of the human protein
# [27] = target: PRKACA (human) (UniProt P17612)
# [28] = target: RIPK2 (human) (UniProt O43353)
# [29] = target: RPS6KA1 KD1 KD2 (human) (UniProt Q15418)
# [30] = target: RPS6KA3 KD1 KD2 (human) (UniProt P51812)
# [31] = target: RPS6KA5 KD1 KD2 (human) (UniProt O75582)
# [32] = tested on: RPS6KB1 (human), P23443 [T412E]
# [33] = target: SRC (human) (UniProt P12931)
# [34] = target: SYK (human) (UniProt P43405)
# [35] = target: TTK (human) (UniProt P33981)
# Sequence of EPHB4 (human) (P54760 whole entry, looked up): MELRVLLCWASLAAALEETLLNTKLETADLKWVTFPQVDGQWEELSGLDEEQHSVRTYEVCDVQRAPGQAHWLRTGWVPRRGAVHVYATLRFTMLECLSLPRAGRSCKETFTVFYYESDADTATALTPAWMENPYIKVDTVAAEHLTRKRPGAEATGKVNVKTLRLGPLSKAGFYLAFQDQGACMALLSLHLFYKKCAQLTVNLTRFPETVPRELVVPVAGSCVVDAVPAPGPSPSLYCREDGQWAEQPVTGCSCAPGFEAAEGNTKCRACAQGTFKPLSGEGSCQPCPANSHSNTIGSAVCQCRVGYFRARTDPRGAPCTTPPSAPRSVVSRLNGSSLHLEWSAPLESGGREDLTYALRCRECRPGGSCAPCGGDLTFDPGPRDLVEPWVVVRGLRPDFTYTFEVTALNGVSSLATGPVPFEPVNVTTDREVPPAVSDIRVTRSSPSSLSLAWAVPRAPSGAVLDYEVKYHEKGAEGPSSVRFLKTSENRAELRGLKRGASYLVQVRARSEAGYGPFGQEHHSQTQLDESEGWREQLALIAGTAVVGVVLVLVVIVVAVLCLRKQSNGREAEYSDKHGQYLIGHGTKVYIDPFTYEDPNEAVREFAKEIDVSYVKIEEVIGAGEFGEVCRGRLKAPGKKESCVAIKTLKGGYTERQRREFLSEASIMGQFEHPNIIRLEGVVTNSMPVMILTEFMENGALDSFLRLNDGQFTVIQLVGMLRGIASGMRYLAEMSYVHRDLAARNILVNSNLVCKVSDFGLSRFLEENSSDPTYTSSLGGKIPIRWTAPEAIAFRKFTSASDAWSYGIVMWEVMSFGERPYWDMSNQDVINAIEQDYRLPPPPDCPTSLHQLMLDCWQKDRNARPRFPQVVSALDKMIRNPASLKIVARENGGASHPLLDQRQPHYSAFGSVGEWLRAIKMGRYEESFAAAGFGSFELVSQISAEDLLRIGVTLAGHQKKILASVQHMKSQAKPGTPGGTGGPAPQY
# Sequence of CSK (human) (P41240 whole entry, looked up): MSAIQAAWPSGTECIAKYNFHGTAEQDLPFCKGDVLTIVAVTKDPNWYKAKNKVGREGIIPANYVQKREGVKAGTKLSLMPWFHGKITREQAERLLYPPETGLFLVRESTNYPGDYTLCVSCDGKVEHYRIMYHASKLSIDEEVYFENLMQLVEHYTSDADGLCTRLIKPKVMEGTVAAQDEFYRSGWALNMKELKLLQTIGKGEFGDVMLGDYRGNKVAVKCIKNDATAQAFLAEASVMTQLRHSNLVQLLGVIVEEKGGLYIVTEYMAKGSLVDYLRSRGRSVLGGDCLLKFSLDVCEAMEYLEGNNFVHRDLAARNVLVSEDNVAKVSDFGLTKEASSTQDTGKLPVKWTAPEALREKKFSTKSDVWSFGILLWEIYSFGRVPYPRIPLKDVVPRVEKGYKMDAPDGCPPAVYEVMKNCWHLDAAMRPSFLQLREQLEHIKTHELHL
# Sequence of MAPK15 (human) (Q8TD08 whole entry, looked up): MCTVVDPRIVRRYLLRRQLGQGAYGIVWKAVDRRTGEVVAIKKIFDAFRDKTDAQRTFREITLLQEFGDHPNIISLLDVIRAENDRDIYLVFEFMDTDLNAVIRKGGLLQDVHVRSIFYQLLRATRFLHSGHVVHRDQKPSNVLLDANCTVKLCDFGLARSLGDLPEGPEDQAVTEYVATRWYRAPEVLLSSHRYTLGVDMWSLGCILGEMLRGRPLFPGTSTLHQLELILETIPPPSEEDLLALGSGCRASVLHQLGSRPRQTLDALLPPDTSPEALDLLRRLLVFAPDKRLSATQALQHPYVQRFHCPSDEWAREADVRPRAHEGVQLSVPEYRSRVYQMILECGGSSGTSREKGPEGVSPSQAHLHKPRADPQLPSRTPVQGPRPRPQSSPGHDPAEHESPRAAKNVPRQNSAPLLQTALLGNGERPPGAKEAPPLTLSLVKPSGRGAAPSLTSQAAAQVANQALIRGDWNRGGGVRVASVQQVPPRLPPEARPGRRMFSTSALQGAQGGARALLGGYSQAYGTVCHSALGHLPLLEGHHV
# Sequence of SRC (human) (P12931 whole entry, looked up): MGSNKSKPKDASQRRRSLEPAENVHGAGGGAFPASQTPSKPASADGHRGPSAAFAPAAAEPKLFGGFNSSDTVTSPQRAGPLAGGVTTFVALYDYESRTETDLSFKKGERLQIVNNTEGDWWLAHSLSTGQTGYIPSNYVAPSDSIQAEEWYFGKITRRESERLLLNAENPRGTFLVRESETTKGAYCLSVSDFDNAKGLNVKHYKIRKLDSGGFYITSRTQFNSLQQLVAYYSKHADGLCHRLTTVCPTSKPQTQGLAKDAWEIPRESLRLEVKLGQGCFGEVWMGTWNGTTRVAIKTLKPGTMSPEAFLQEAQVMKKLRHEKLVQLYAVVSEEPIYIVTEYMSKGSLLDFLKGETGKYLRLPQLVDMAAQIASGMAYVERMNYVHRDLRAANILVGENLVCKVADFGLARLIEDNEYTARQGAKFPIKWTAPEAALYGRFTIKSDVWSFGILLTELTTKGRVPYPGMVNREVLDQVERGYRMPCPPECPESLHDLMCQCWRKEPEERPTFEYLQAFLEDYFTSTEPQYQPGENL
# Sequence of NEK2 (human) (P51955 whole entry, looked up): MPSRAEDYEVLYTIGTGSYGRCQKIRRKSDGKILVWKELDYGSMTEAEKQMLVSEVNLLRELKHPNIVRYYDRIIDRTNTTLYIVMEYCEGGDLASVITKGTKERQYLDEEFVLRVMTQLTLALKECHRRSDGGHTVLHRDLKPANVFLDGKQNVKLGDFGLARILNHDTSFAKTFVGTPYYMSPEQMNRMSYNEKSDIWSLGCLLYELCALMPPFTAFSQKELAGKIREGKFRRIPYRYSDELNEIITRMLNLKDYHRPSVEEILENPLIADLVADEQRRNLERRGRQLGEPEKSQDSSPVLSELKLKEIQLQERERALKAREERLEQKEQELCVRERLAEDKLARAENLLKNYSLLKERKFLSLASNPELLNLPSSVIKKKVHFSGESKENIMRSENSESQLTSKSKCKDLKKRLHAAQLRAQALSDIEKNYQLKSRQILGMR
# Sequence of MAP2K1 (human) (Q02750 whole entry, looked up): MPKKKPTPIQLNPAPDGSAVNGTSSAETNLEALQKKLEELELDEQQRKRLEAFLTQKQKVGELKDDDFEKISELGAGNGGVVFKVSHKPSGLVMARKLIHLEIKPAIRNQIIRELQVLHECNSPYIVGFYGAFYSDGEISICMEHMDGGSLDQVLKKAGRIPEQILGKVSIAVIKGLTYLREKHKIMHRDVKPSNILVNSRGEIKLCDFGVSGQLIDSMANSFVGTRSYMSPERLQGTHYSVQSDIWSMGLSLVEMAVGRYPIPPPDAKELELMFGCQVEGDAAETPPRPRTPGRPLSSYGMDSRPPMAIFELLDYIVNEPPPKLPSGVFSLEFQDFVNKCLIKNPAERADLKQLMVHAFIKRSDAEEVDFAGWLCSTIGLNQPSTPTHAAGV
# Sequence of MAPK1 (human) (P28482 whole entry, looked up): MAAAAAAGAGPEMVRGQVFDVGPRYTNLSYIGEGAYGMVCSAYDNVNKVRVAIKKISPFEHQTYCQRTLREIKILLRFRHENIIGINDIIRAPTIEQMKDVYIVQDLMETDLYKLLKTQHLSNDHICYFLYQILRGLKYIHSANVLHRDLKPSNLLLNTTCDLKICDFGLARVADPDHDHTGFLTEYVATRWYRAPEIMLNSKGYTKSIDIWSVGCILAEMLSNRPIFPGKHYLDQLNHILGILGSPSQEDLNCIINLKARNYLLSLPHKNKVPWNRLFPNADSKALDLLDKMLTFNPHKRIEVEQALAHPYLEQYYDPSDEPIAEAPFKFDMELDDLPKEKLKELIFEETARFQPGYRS
# Sequence of PAK7 (human) (Q9P286 whole entry, looked up): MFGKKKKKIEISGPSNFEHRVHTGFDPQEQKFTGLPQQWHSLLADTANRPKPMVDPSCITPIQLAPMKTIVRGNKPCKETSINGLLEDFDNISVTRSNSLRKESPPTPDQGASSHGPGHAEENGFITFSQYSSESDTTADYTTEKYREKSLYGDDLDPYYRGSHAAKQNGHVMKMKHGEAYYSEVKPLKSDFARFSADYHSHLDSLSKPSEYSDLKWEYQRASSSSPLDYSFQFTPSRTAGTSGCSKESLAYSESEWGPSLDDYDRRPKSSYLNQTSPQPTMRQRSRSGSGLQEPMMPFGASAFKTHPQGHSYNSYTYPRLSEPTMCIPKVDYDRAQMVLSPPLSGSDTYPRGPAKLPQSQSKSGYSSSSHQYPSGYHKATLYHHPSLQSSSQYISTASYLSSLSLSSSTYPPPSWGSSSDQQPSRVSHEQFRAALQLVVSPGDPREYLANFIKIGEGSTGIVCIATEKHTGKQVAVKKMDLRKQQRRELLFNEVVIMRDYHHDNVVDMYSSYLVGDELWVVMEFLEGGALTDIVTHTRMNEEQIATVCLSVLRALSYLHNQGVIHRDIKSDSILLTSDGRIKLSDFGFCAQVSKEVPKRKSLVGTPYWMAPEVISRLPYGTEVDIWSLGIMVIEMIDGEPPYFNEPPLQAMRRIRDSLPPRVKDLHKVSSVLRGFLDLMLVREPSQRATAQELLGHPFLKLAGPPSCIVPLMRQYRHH
# Sequence of MAPK14 (human) (Q16539 whole entry, looked up): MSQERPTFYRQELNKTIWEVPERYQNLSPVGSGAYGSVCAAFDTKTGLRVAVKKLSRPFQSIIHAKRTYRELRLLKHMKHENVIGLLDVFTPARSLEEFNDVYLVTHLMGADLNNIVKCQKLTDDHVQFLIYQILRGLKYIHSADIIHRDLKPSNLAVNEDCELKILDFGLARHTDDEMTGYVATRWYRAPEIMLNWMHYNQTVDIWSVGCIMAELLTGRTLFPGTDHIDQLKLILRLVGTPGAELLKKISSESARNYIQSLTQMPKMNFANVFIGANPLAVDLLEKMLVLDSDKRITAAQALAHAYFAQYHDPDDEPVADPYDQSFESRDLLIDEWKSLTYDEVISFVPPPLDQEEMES
compound,measurement,setting,value
NC(=O)c1ccc(-c2ccc(Oc3cncc4sc(-c5nn[nH]n5)cc34)cc2)cc1,residual activity,[1]; compound 1.0 µM,77%
same,residual activity,[1]; compound 10.0 µM,62%
same,residual activity,[2]; compound 1.0 µM,95%
same,residual activity,[2]; compound 10.0 µM,71%
same,residual activity,[3]; compound 1.0 µM,91%
same,residual activity,[3]; compound 10.0 µM,105%
same,residual activity,[4]; compound 1.0 µM,97%
same,residual activity,[4]; compound 10.0 µM,59%
same,residual activity,[5]; compound 1.0 µM,86%
same,residual activity,[5]; compound 10.0 µM,100%
same,residual activity,[6]; compound 1.0 µM,90%
same,residual activity,[6]; compound 10.0 µM,59%
same,residual activity,[7]; compound 1.0 µM,103%
same,residual activity,[7]; compound 10.0 µM,112%
same,residual activity,[8]; compound 1.0 µM,95%
same,residual activity,[8]; compound 10.0 µM,107%
same,residual activity,[9]; compound 1.0 µM,97%
same,residual activity,[9]; compound 10.0 µM,96%
same,residual activity,[10]; compound 1.0 µM,84%
same,residual activity,[10]; compound 10.0 µM,24%
same,residual activity,[11]; compound 1.0 µM,94%
same,residual activity,[11]; compound 10.0 µM,64%
same,residual activity,[12]; compound 1.0 µM,89%
same,residual activity,[12]; compound 10.0 µM,69%
same,residual activity,[13]; compound 1.0 µM,79%
same,residual activity,[13]; compound 10.0 µM,26%
same,residual activity,[14]; compound 1.0 µM,85%
same,residual activity,[14]; compound 10.0 µM,78%
same,residual activity,[15]; compound 1.0 µM,96%
same,residual activity,[15]; compound 10.0 µM,96%
same,residual activity,[16]; compound 1.0 µM,106%
same,residual activity,[16]; compound 10.0 µM,98%
same,residual activity,[17]; compound 1.0 µM,85%
same,residual activity,[17]; compound 10.0 µM,2%
same,residual activity,[18]; compound 1.0 µM,97%
same,residual activity,[18]; compound 10.0 µM,78%
same,residual activity,[19]; compound 1.0 µM,82%
same,residual activity,[19]; compound 10.0 µM,87%
same,residual activity,[20]; compound 1.0 µM,94%
same,residual activity,[20]; compound 10.0 µM,58%
same,residual activity,[21]; compound 1.0 µM,94%
same,residual activity,[21]; compound 10.0 µM,80%
same,residual activity,[22]; compound 1.0 µM,98%
same,residual activity,[22]; compound 10.0 µM,94%
same,residual activity,[23]; compound 1.0 µM,81%
same,residual activity,[23]; compound 10.0 µM,66%
same,residual activity,[24]; compound 1.0 µM,85%
same,residual activity,[24]; compound 10.0 µM,14%
same,residual activity,[25]; compound 1.0 µM,90%
same,residual activity,[25]; compound 10.0 µM,24%
same,residual activity,[26]; compound 1.0 µM,77%
same,residual activity,[26]; compound 10.0 µM,49%
same,residual activity,[27]; compound 1.0 µM,108%
same,residual activity,[27]; compound 10.0 µM,72%
same,residual activity,[28]; compound 1.0 µM,94%
same,residual activity,[28]; compound 10.0 µM,22%
same,residual activity,[29]; compound 1.0 µM,88%
same,residual activity,[29]; compound 10.0 µM,33%
same,residual activity,[30]; compound 1.0 µM,77%
same,residual activity,[30]; compound 10.0 µM,44%
same,residual activity,[31]; compound 1.0 µM,90%
same,residual activity,[31]; compound 10.0 µM,20%
same,residual activity,[32]; compound 1.0 µM,96%
same,residual activity,[32]; compound 10.0 µM,64%
same,residual activity,[33]; compound 1.0 µM,85%
same,residual activity,[33]; compound 10.0 µM,92%
same,residual activity,[34]; compound 1.0 µM,107%
same,residual activity,[34]; compound 10.0 µM,95%
same,residual activity,[35]; compound 1.0 µM,79%
same,residual activity,[35]; compound 10.0 µM,51%
COc1cc(O)c2c(c1)/C=C/C[C@H](O)[C@H](O)C(=O)/C=C\C[C@H](C)OC2=O,residual activity,[1]; compound 0.1 µM,86%
same,residual activity,[1]; compound 1.0 µM,84%
same,residual activity,[2]; compound 0.1 µM,90%
same,residual activity,[2]; compound 1.0 µM,93%
same,residual activity,[3]; compound 0.1 µM,119%
same,residual activity,[3]; compound 1.0 µM,88%
same,residual activity,[4]; compound 0.1 µM,110%
same,residual activity,[4]; compound 1.0 µM,87%
same,residual activity,[5]; compound 0.1 µM,118%
same,residual activity,[5]; compound 1.0 µM,56%
same,residual activity,[6]; compound 0.1 µM,102%
same,residual activity,[6]; compound 1.0 µM,104%
same,residual activity,[7]; compound 0.1 µM,91%
same,residual activity,[7]; compound 1.0 µM,46%
same,residual activity,[8]; compound 0.1 µM,99%
same,residual activity,[8]; compound 1.0 µM,81%
same,residual activity,[9]; compound 0.1 µM,87%
same,residual activity,[9]; compound 1.0 µM,90%
same,residual activity,[10]; compound 0.1 µM,8%
same,residual activity,[10]; compound 1.0 µM,13%
same,residual activity,[11]; compound 0.1 µM,102%
same,residual activity,[11]; compound 1.0 µM,95%
same,residual activity,[12]; compound 0.1 µM,120%
same,residual activity,[12]; compound 1.0 µM,92%
same,residual activity,[13]; compound 1.0 µM,96%
same,residual activity,[14]; compound 0.1 µM,13%
same,residual activity,[14]; compound 1.0 µM,2%
same,residual activity,[15]; compound 0.1 µM,103%
same,residual activity,[15]; compound 1.0 µM,65%
same,residual activity,[16]; compound 0.1 µM,103%
same,residual activity,[16]; compound 1.0 µM,85%
same,residual activity,[17]; compound 0.1 µM,40%
same,residual activity,[17]; compound 1.0 µM,4%
same,residual activity,[18]; compound 0.1 µM,106%
same,residual activity,[18]; compound 1.0 µM,64%
same,residual activity,[19]; compound 0.1 µM,113%
same,residual activity,[19]; compound 1.0 µM,94%
same,residual activity,[20]; compound 0.1 µM,41%
same,residual activity,[20]; compound 1.0 µM,26%
same,residual activity,[21]; compound 0.1 µM,108%
same,residual activity,[21]; compound 1.0 µM,89%
same,residual activity,[22]; compound 0.1 µM,122%
same,residual activity,[22]; compound 1.0 µM,93%
same,residual activity,[23]; compound 0.1 µM,96%
same,residual activity,[23]; compound 1.0 µM,103%
same,residual activity,[24]; compound 0.1 µM,91%
same,residual activity,[24]; compound 1.0 µM,106%
same,residual activity,[25]; compound 0.1 µM,103%
same,residual activity,[25]; compound 1.0 µM,100%
same,residual activity,[26]; compound 0.1 µM,100%
same,residual activity,[26]; compound 1.0 µM,92%
same,residual activity,[27]; compound 0.1 µM,99%
same,residual activity,[27]; compound 1.0 µM,93%
same,residual activity,[28]; compound 0.1 µM,103%
same,residual activity,[28]; compound 1.0 µM,39%
same,residual activity,[29]; compound 0.1 µM,113%
same,residual activity,[29]; compound 1.0 µM,90%
same,residual activity,[30]; compound 0.1 µM,106%
same,residual activity,[30]; compound 1.0 µM,70%
same,residual activity,[31]; compound 1.0 µM,100%
same,residual activity,[32]; compound 0.1 µM,112%
same,residual activity,[32]; compound 1.0 µM,82%
same,residual activity,[33]; compound 0.1 µM,106%
same,residual activity,[33]; compound 1.0 µM,43%
same,residual activity,[34]; compound 0.1 µM,88%
same,residual activity,[34]; compound 1.0 µM,77%
same,residual activity,[35]; compound 0.1 µM,104%
same,residual activity,[35]; compound 1.0 µM,91%
